Experimental data from ChEMBL document CHEMBL1143982, “A comparative molecular field and comparative molecular similarity indices analyses (CoMFA and CoMSIA) of N-phenyl-N'-(2-chloroethyl)ureas targeting the colchicine-binding site as anticancer agents” (2008).

The molecules below were run on HT-29 (assay: Antiproliferative activity against human HT29 cells).
Assay type: functional

| GI50 [µM] | SMILES |
| --- | --- |
| 8.9 | CCC(C)c1ccc(NC(=O)N[C@H](C)CCl)cc1 (stereo partly specified) |
| 56 | CCC(C)c1ccc(NC(=O)N[C@H](CC)CCl)cc1 (stereo partly specified) |
| 13 | O=C(NCCCl)Nc1ccc2c(c1)-c1ccccc1C2 |
| 9.1 | CC(C)(C)c1ccc(NC(=O)NCCCl)cc1 |
| 100 | C[C@@H](CCl)NC(=O)Nc1ccc2c(c1)CCC2 |
| 51 | CC[C@@H](CCl)NC(=O)Nc1ccc(I)cc1 |
| 109 | CCC(C)c1ccc(NC(=O)N[C@@H](CC)CCl)cc1 (stereo partly specified) |
| 69 | CC(C)c1ccc(NC(=O)N[C@@H](C)CCl)cc1 |
| 56 | CC[C@H](CCl)NC(=O)Nc1ccc(C(C)(C)C)cc1 |
| 54 | CCC(C)c1ccc(NC(=O)N[C@@H](C)CCl)cc1 (stereo partly specified) |
| 5.5 | O=C(NCCCl)Nc1ccc2ccccc2c1 |
| 10 | O=C(NCCCl)Nc1ccc2c(c1)CCC2 |
| 28 | C[C@@H](CCl)NC(=O)Nc1ccc2c(c1)-c1ccccc1C2 |
| 8.9 | C[C@H](CCl)NC(=O)Nc1ccc(C(C)(C)C)cc1 |
| 55 | C[C@@H](CCl)NC(=O)Nc1ccc(C(C)(C)C)cc1 |
| 1.1 | CC(C)c1ccc(NC(=O)N[C@H](C)CCl)cc1 |
| 181 | C[C@@H](CCl)NC(=O)Nc1ccc2ccccc2c1 |
| 4.9 | C[C@H](CCl)NC(=O)Nc1ccc2ccccc2c1 |
| 49 | C[C@@H](CCl)NC(=O)Nc1ccc(I)cc1 |
| 48 | O=C(NCCCl)Nc1ccc2[nH]ncc2c1 |
| 132 | CCNC(=O)Nc1ccc(C(C)CC)cc1 (stereo unspecified) |
| 6.4 | CCc1ccc(NC(=O)NCCCl)cc1 |
| 20 | Cc1cc(C)cc(NC(=O)NCCCl)c1 |
| 83 | CCNC(=O)Nc1ccc(C(C)(C)C)cc1 |
| 12 | CCCCCCc1ccc(NC(=O)NCCCl)cc1 |
| 400 | O=C(NCCCl)Nc1cccc2c1CCCC2 |
| 400 | CNC(=O)Nc1ccc(C(C)(C)C)cc1 |

| GI50 [µM] | SMILES |
| --- | --- |
| 5.4 | Cc1ccc(NC(=O)NCCCl)cc1C |
| 21 | CC(C)Cc1ccc(NC(=O)NCCCl)cc1 |
| 133 | CCCNC(=O)Nc1ccc(C(C)CC)cc1 (stereo unspecified) |
| 23 | CCCc1ccc(NC(=O)NCCCl)cc1 |
| 9 | O=C(NCCCl)Nc1ccc(Br)cc1 |
| 23 | Cc1ccc(NC(=O)NCCCl)cc1 |
| 36 | CC(C)(C)Cc1ccc(NC(=O)NCCCl)cc1 |
| 76 | CCCNC(=O)Nc1ccc(C(C)C)cc1 |
| 400 | CNC(=O)Nc1ccc(C(C)C)cc1 |
| 400 | CCC(C)c1ccc(NC(=O)NC)cc1 (stereo unspecified) |
| 12 | CCCCCc1ccc(NC(=O)NCCCl)cc1 |
| 21 | CC(C)(C)c1ccc(NC(=O)NCCCCl)cc1 |
| 109 | CC[C@@H](CCl)NC(=O)Nc1ccc(C(C)(C)C)cc1 |
| 400 | CCNC(=O)Nc1ccc(C(C)C)cc1 |
| 14 | O=C(NCCCl)Nc1ccc(Cl)cc1 |
| 33 | CC(C)CCc1ccc(NC(=O)NCCCl)cc1 |
| 35 | CCCNC(=O)Nc1ccc(C(C)(C)C)cc1 |
| 22 | CCCCc1ccc(NC(=O)NCCCl)cc1 |
| 5 | CC(C)c1ccc(NC(=O)NCCCl)cc1 |
| 22 | CC[C@H](CCl)NC(=O)Nc1ccc(I)cc1 |
| 3.9 | O=C(NCCCl)Nc1ccc(I)cc1 |
| 3.6 | CCC(C)c1ccc(NC(=O)NCCCl)cc1 (stereo unspecified) |
| 30 | CC[C@H](CCl)NC(=O)Nc1ccc(C(C)C)cc1 |
| 6.6 | C[C@H](CCl)NC(=O)Nc1ccc2c(c1)-c1ccccc1C2 |
| 0.85 | C[C@H](CCl)NC(=O)Nc1ccc(I)cc1 |
| 54 | CC[C@@H](CCl)NC(=O)Nc1ccc(C(C)C)cc1 |
| 6.4 | C[C@H](CCl)NC(=O)Nc1ccc2c(c1)CCC2 |

Each molecule was assayed on MDA-MB-231 (assay: Antiproliferative activity against human MDA-MB-231 cells).
Assay type: functional

| GI50 [µM] | SMILES |
| --- | --- |
| 587 | Cc1cc(C)c(NC(=O)NCCCl)c(C)c1 |
| 48 | CCCCCCCCc1ccc(NC(=O)NCCCl)cc1 |
| 88 | Cc1cccc(NC(=O)NCCCl)c1 |
| 16 | CCc1cccc(NC(=O)NCCCl)c1 |
| 400 | CCc1ccccc1NC(=O)NCCCl |
| 587 | CCCCCCCCCCCc1ccc(NC(=O)NCCCl)cc1 |
| 220 | O=C(NCCCl)Nc1cccc2ccccc12 |
